Assay results: paper PMC10732151, “1,4,7-Triazacyclononane-Based Chelators for the Complexation of [^186Re]Re- and [^99mTc]Tc-Tricarbonyl Cores” (Inorganic Chemistry, 2023)
Each block holds one compound with its values, some of them ahead of it.

Columns and labels:
Solubility (qualitative) = format: physicochemical
[1] = In vitro radiocomplex stability in PBS buffer with no challenger, L-cysteine or L-histidine; format: physicochemical; details: 37 °C
Description: Radiocomplex stability testing was carried out in PBS buffer (350–400 μL) with either no challenger or L-cysteine (50 μL, 10 mM) or L-histidine (50 μL, 10 mM) as the challenger. All stability tests also contained ascorbic acid (50 μL, 1 mg/mL in PBS, pH 7) as a radioprotectant. HPLC-purified radiocomplexes ([^99mTc]Tc, 50 μL, 3.7–5.6 MBq, 100–150 μCi; [^186Re]Re, 50 μL, 1.9–3.7 MBq, 50–100 μCi) were added to the stability testing solutions and incubated at 37 °C. Aliquots of each solution were taken at 1, 4, and 24 h, and the stability of the complex was determined by radio-HPLC (Methods 1 and 3) or radio-TLC (Developer 1). An additional stability time point of 48 h was taken for the [^186Re]Re complexes. The formation of colloidal [^99mTc]TcO2 or [^186Re]ReO2 was monitored at each time point by radio-TLC (Developers 1 and 2).

[2] = Radiocomplex stability in rat serum; format: in vitro ADME; details: 37 °C
Description: The radiocomplex stability was also tested in rat serum. HPLC-purified radiocomplexes ([^99mTc]Tc, 50 μL, 7.4–11.1 MBq, 200–300 μCi; [^186Re]Re, 50 μL, 3.0–3.7 MBq, 80–100 μCi) were added to solutions of rat serum (400 μL, Innovative-grade U.S. Origin Sprague–Dawley Rat Serum, Innovative Research, Novi, MI) and ascorbic acid (50 μL, 1 mg/mL in PBS, pH 7). The rat serum mixtures were incubated at 37 °C. Aliquots (100–300 μL) were taken at 1, 4, and 24 h for all radiocomplexes and also at 48 h for the [^186Re]Re complexes. The rat serum aliquots were added to a 4 times volume of acetonitrile to precipitate the rat serum proteins. The solutions were vortexed for 1 min and centrifuged for 10 min. The supernatant was carefully removed, and the pellet was washed with another portion of acetonitrile (100–500 μL). The solution was again vortexed and centrifuged, and the supernatant was removed. The activities in the combined supernatants (containing radiocomplex not bound to proteins) and the pellet (containing radiocomplex bound to proteins) were measured to determine the percentage of nonspecific protein binding for each radiocomplex. Finally, the solvent was removed from the supernatant under a stream of nitrogen, and the stability of the radiocomplexes was determined by radio-HPLC (Methods 1 and 3) after reconstitution in PBS (1 mM, pH 7.4). The formation of colloidal [^99mTc]TcO2 or [^186Re]ReO2 was also monitored at each time point by radio-TLC (Developers 1 and 2).

[3] = Storage stability of chelators and nonradioactive Re complexes; format: physicochemical; details: for hydrolysis observed on storage: under dry conditions at RT for 3 months

solubility (solvents in which soluble) (Solubility (qualitative)): soluble in methanol, ethanol, and water
Compound: COC(=O)CN1CCN(CC(=O)O)CCN(CC(=O)NCc2ccccc2)CC1 [Chelator 7, TACN-benzylamide Acid Methyl Ester]

stability in PBS, L-cysteine, and L-histidine ([1]; through 4 h): > 95%
stability in PBS, L-cysteine, and L-histidine ([1]; through/after 48 h): > 76%
stability in rat serum ([2]; 48 h): 4 ± 1%
stability in rat serum ([2]; at 1 h): 88 ± 1%
Compound: COC(=O)CN1CCN(CC(=O)NCc2ccccc2)CCN(CC(=O)OC)CC1.O=[C]=[186Re+](=[C]=O)=[C]=O [[^186Re]Re-5]

solubility (solvents in which soluble) (Solubility (qualitative)): soluble in methanol and acetonitrile
time stable on storage ([3]; stored in a methanol solution, afterwards ester hydrolysis observed): up to 1 week
Compound: COC(=O)CN1CCN(CC(=O)NCc2ccccc2)CCN(CC(=O)OC)CC1 [Chelator 5, TACN-benzylamide Methyl Ester]

solubility (solvents in which soluble) (Solubility (qualitative)): soluble in water
time stable on storage ([3]; stored under dry, dark conditions at RT): 1 month
Compound: fac-[Re(CO)3(TACN-benzylamide)]^+ [Re-3]

stability in PBS, L-cysteine, and L-histidine ([1]; through 4 h): > 95%
stability in PBS, L-cysteine, and L-histidine ([1]; through/after 48 h): > 76%
stability in rat serum ([2]; 48 h): ≤ 2%
Compound: CCOC(=O)CN1CCN(CC(=O)NCc2ccccc2)CCN(CC(=O)OCC)CC1.O=[C]=[186Re+](=[C]=O)=[C]=O [[^186Re]Re-6]

stability in PBS, L-cysteine, and L-histidine ([1]; through/after 48 h): > 94%
stability in rat serum ([2]; 48 h): 38%
Compound: COC(=O)CN1CCN(CC(=O)O)CCN(CC(=O)NCc2ccccc2)CC1.O=[C]=[186Re+](=[C]=O)=[C]=O [[^186Re]Re-7]

stability in PBS, L-cysteine, and L-histidine ([1]; through 4 h): > 90%
stability in PBS, L-cysteine, and L-histidine ([1]; through 24 h): > 79%
stability in rat serum ([2]; 24 h): 32 ± 10%
stability in rat serum ([2]; at 1 h): 94 ± 1%
Compound: COC(=O)CN1CCN(CC(=O)NCc2ccccc2)CCN(CC(=O)OC)CC1.O=[C]=[99Tc+](=[C]=O)=[C]=O [[^99mTc]Tc-5]

solubility (solvents in which soluble) (Solubility (qualitative)): soluble in water and methanol
time stable on storage ([3]; stored under dry conditions, in words): several months
Compound: fac-[Re(CO)3(TACN-benzylamide acid)]^+ [Re-4]

time stable on storage ([3]; at RT in an aqueous solution, in words): several months
Compound: O=C(O)CN1CCN(CC(=O)O)CCN(CC(=O)NCc2ccccc2)CC1 [Chelator 4, TACN-benzylamide Acid]
solubility (solvents in which soluble) (Solubility (qualitative)): soluble in water, methanol, and acetonitrile

solubility (solvents in which soluble) (Solubility (qualitative)): soluble in ethanol and acetonitrile
time stable on storage ([3]; stored in an ethanol solution): up to 1 week
Compound: CCOC(=O)CN1CCN(CC(=O)NCc2ccccc2)CCN(CC(=O)OCC)CC1 [Chelator 6, TACN-benzylamide Ethyl Ester]

Compound: O=C(CN1CCNCCNCC1)NCc1ccccc1 [Chelator 3, N-Benzyl-2-(1,4,7-triazonan-1-yl)acetamide]
solubility (solvents in which soluble) (Solubility (qualitative)): soluble in water, methanol, and acetonitrile

hydrolysis observed on storage [3]: < 5%
Compound: fac-[Re(CO)3(TACN-benzylamide methyl ester)]^+ [Re-5]

stability in PBS, L-cysteine, and L-histidine ([1]; through 24 h): 100%
stability in rat serum ([2]; 24 h): > 60%
Compound: CCOC(=O)CN1CCN(CC(=O)O)CCN(CC(=O)NCc2ccccc2)CC1.O=[C]=[99Tc+](=[C]=O)=[C]=O [[^99mTc]Tc-8]

stability in PBS, L-cysteine, and L-histidine ([1]; through 4 h): > 90%
stability in PBS, L-cysteine, and L-histidine ([1]; through 24 h): > 79%
stability in rat serum ([2]; 24 h): ≤ 2%
Compound: CCOC(=O)CN1CCN(CC(=O)NCc2ccccc2)CCN(CC(=O)OCC)CC1.O=[C]=[99Tc+](=[C]=O)=[C]=O [[^99mTc]Tc-6]

stability in PBS, L-cysteine, and L-histidine ([1]; through/after 48 h): > 94%
stability in rat serum ([2]; 48 h): 42%
Compound: CCOC(=O)CN1CCN(CC(=O)O)CCN(CC(=O)NCc2ccccc2)CC1.O=[C]=[186Re+](=[C]=O)=[C]=O [[^186Re]Re-8]

solubility (solvents in which soluble) (Solubility (qualitative)): soluble in ethanol and acetonitrile
Compound: CCOC(=O)CN1CCN(CC(=O)O)CCN(CC(=O)NCc2ccccc2)CC1 [Chelator 8, TACN-benzylamide Acid Ethyl Ester]

hydrolysis observed on storage [3]: no hydrolysis observed
Compound: CCOC(=O)C[N+]12CC[N+]3(CC(=O)NCc4ccccc4)CC[N+](CC(=O)OCC)(CC1)[Re-2]32.[C-]#[O+].[C-]#[O+].[C-]#[O+] (stereo not shown) [Re-6, fac-[Re(CO)3(TACN-benzylamideethyl ester)]^+]

stability in PBS, L-cysteine, and L-histidine ([1]; through 24 h): 100%
stability in rat serum ([2]; 24 h): > 60%
Compound: COC(=O)CN1CCN(CC(=O)O)CCN(CC(=O)NCc2ccccc2)CC1.O=[C]=[99Tc+](=[C]=O)=[C]=O [[^99mTc]Tc-7]
